According to ChEMBL document CHEMBL1201862, “PubChem BioAssay data set” (2004):
“And” between values parts separate entries of the source, which are not always exact repeats. Equal entries are not always repeated. Structures can show the parent of a compound that is named as a salt.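 Briefly, cells in 96-well plates were exposed to five compound concentrations for 48 h, and endpoints were estimated by linear interpolation. GI50 = concentration required for 50% inhibition of growth.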 The source made the active and inactive calls. Cut-off read from the data, not from the text of the source: active = GI50 up to about 1.1 µM and inactive = higher.

Columns and labels:
Test in all cases: NCI-60 cell line screen, 48 h
SNB-19 = tested on: SNB-19
HOP-62 = tested on: HOP-62
Hs-578T = tested on: Hs-578T
UACC-62 = tested on: UACC-62
K562 = tested on: K562
MDA-MB-435 = tested on: MDA-MB-435
ACHN = tested on: ACHN
HCT-116 = tested on: HCT-116
NCI-H460 = tested on: NCI-H460
MCF7 = tested on: MCF7
SK-MEL-5 = tested on: SK-MEL-5
MDA-N = tested on: MDA-N
MOLT-4 = tested on: MOLT-4
LOX IMVI = tested on: LOX IMVI
EKVX = tested on: EKVX
SNB-75 = tested on: SNB-75
SK-MEL-28 = tested on: SK-MEL-28
SF-295 = tested on: SF-295
UO-31 = tested on: UO-31
HOP-92 = tested on: HOP-92

Measured: GI50

O=C(/C=C/c1ccsc1)c1ccc(Cl)cc1
inactive: SNB-19 53.8 µM | HOP-62 > 100 µM | Hs-578T 57.8 µM | UACC-62 41.6 µM | K562 20.6 µM | MDA-MB-435 41.8 µM | ACHN > 100 µM | HCT-116 23.7 µM | NCI-H460 > 100 µM | MCF7 34.8 µM | SK-MEL-5 > 100 µM | MDA-N 59 µM | MOLT-4 19.2 µM | LOX IMVI 25.5 µM | EKVX 97.7 µM | SNB-75 > 100 µM | SK-MEL-28 > 100 µM | SF-295 > 100 µM | UO-31 31.1 µM

Cc1cc(C)c(N)c(CO)c1
inactive: SNB-19 > 100 µM | HOP-62 38 µM and > 53.5 µM | Hs-578T > 100 µM | HOP-92 > 59.2 µM | UACC-62 22.8 µM and 13.2 µM | K562 59.8 µM and 67.5 µM | MDA-MB-435 > 100 µM | ACHN > 100 µM | HCT-116 35.6 µM and 19.3 µM | NCI-H460 46.7 µM and 34 µM | SK-MEL-5 > 100 µM | MDA-N > 100 µM | MOLT-4 > 100 µM | LOX IMVI > 100 µM | EKVX > 100 µM and 81.1 µM | SNB-75 > 100 µM | SK-MEL-28 > 100 µM | SF-295 > 73.6 µM and > 74.8 µM | UO-31 > 100 µM and 97.1 µM

CCNCC(O)COc1ccc2c(c1)[n+]([O-])nc(N)[n+]2[O-] (stereo not given)
inactive: SNB-19 61.2 µM | HOP-62 23.5 µM | Hs-578T 54.6 µM | UACC-62 18 µM | K562 35.2 µM | MDA-MB-435 > 100 µM | ACHN 30.1 µM | HCT-116 50.2 µM | NCI-H460 > 10 µM | MCF7 74 µM | SK-MEL-5 24.8 µM | MDA-N > 100 µM | MOLT-4 14.5 µM | LOX IMVI 14.3 µM | EKVX > 100 µM | SNB-75 29.4 µM | SK-MEL-28 > 100 µM | SF-295 34.4 µM | UO-31 > 100 µM

CC(C)CCC[C@@H](C)C1CCC2[C@@H]3CCC4C[C@@H](NS(C)(=O)=O)CC[C@]4(C)C3CC[C@@]21C (stereo not given in full)
inactive: SNB-19 > 100 µM | HOP-62 > 100 µM | Hs-578T > 100 µM | UACC-62 > 100 µM | K562 > 100 µM | MDA-MB-435 > 100 µM | HCT-116 > 100 µM | NCI-H460 > 100 µM | MCF7 > 100 µM | SK-MEL-5 > 100 µM | MDA-N > 100 µM | MOLT-4 > 100 µM | LOX IMVI > 100 µM | EKVX > 100 µM | SNB-75 > 100 µM | SK-MEL-28 > 100 µM | SF-295 > 100 µM | UO-31 > 100 µM

NCCS [CYSTEAMINE HYDROCHLORIDE]
inactive: SNB-19 > 100 µM | HOP-62 > 100 µM | Hs-578T > 100 µM | K562 > 100 µM | MDA-MB-435 > 100 µM | ACHN > 100 µM | HCT-116 > 100 µM | NCI-H460 > 100 µM | MCF7 > 100 µM | SK-MEL-5 > 100 µM | MDA-N > 100 µM | MOLT-4 > 100 µM | LOX IMVI > 100 µM | EKVX > 100 µM | SNB-75 > 100 µM | SK-MEL-28 > 100 µM | SF-295 > 100 µM | UO-31 > 100 µM

C=C(C)[C@H]1CC23C(=O)C(C(=O)C(C)C)=C(O)[C@](C)(C[C@H]2C1(C)C)C3=O [LALIBINONE B]
inactive: SNB-19 25.8 µM | HOP-62 15.6 µM | Hs-578T 23 µM | UACC-62 16.3 µM | K562 20.5 µM | MDA-MB-435 16.4 µM | ACHN 16.6 µM | NCI-H460 17 µM | MCF7 15.3 µM | SK-MEL-5 17.7 µM | MDA-N 18.9 µM | MOLT-4 3.72 µM | LOX IMVI 20.7 µM | EKVX 11 µM | SK-MEL-28 15 µM | SF-295 15.1 µM | UO-31 18.3 µM
